Publication PMC3631420 (Science translational medicine, 2012)
One block for each molecule: values may come before it.

Columns and labels:
CRC and MM = details: cited from earlier work
[1] = cited from earlier work
[2] = test system: β-catenin/TCF interaction; details: cited from earlier work
GST-β-catenin = target: T1, GST-β-catenin (human, UniProt P35222 1-781); assay: pull-down
T1 sequence (looked up): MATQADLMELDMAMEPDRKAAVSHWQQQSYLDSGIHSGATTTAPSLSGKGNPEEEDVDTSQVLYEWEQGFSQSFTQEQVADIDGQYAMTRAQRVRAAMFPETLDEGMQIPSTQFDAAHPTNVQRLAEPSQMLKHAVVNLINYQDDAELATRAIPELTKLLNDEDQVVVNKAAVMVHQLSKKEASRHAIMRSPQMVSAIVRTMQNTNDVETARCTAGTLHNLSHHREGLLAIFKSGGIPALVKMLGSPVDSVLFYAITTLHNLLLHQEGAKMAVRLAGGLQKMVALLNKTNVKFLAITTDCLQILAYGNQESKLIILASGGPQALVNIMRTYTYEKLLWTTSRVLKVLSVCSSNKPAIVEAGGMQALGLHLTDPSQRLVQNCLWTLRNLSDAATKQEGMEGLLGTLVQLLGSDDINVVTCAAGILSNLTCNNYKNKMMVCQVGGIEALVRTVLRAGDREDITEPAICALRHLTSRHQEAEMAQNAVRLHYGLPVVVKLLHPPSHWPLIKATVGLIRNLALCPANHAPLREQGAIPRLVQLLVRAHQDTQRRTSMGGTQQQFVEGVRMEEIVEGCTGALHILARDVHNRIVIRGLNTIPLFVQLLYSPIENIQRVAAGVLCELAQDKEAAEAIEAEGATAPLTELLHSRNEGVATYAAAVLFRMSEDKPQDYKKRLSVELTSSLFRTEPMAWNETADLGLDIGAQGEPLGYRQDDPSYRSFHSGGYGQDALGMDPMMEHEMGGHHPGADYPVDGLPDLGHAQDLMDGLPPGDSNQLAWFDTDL

Molecule: PKF115-584
- growth of CRC and MM (CRC and MM): reduced the growth
- toxicity in treated mice [1]: induced severe bone marrow hypoplasia, anemia, and generalized wasting
- Wnt-specific transcriptional activity [2]: blocked Wnt-specific transcriptional activity

- binding result (GST-β-catenin): binds
B1: His-BCL9 (residues 243–469) (domain or fragment, human, UniProt O00512 243-469, looked up)
chain: NQDQNSSQNTRLQPTPPIPAPAPKPAAPPRPLDRESPGVENKLIPSVGSPASSTPLPPDGTGPNSTPNNRAVTPVSQGSNSSSADPKAPPPPPVSSGEPPTLGENPDGLSQEQLEHRERSLQTLRDIQRMLFPDEKEFTGAQSGGPQQNPGVLDGPQKKPEGPIQAMMAQSQSLGKGPGPRTDVGAPFGPQGHRDVPFSPDEMVPPSMNSQSGTIGPDHLDHMTPEQ
